Consider 5 molecules from paper PMC4263554, “A Comparative Study of Impedance versus Optical Label-Free Systems Relative to Labelled Assays in a Predominantly Gi Coupled GPCR (C5aR) Signalling” (Biosensors, 2012).

Several values for one entry are separate records, joined by “and”; a condition that tells them apart may be missing. Equal entries are not always repeated. Entries after “also recorded” stand apart in the source; their conditions may differ. Non-standard residues stand in square brackets, D forms with d. Residues, ends and D or L forms follow the SMILES beside them. d1Nal = N[C@H](Cc1cccc2ccccc12)C(=O)O; NMeF = CN[C@@H](Cc1ccccc1)C(=O)O; dCha = N[C@H](CC1CCCCC1)C(=O)O

Test [1] deals with T1, human C5aR (Homo sapiens, UniProt P21730).
T1 construct: host or cells: CHO cells, stably transfected (G418 selection)
T1 sequence (P21730 1-350): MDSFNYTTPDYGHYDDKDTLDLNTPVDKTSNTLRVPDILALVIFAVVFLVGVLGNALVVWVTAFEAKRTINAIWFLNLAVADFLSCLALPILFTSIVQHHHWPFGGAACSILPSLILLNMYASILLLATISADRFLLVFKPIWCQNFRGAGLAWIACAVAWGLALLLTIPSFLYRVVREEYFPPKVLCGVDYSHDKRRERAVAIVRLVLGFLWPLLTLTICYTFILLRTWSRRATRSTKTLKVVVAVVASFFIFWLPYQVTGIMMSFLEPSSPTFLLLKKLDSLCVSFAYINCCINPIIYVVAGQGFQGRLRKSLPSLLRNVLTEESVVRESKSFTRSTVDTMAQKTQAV
As to the kind of experiment: 125I-C5a competitive receptor binding (SPA) on CHO-C5aR membranes. Conditions: for IC50: CHO-C5aR membranes, 25 pM 125I-C5a, 95% confidence intervals in brackets. As for the experimental part: Membranes were prepared from CHO-C5aR cells by modification of a previously described method. Briefly, cells were washed with PBS, pH 7.4, and harvested into buffer (50 mM Tris-HCl, pH 7.4, 5 mM MgCl2, 1 mM CaCl2) before homogenising with a Polytron homogeniser for 3 min on setting 22. Cells were centrifuged at 150× g for 5 min at 4 °C. The supernatant was recovered and centrifuged at 22,000× g for 1 h at 4 °C. Membrane pellets were then resuspended in 0.4 mL of ice-cold assay buffer A (50 mM Tris-HCl, pH 7.4, 5 mM MgCl2, 1 mM CaCl2, 0.5% bovine serum albumin (BSA) (Sigma Aldrich) containing 10% glycerol) with aliquots stored at −80 °C. The protein concentration of the membrane preparations was determined by the Bradford method.
(§1) The scintillation proximity assay (SPA) was used to study ligand binding interactions with the receptor. The basic principle of the assay involved coupling receptor membrane preparations to coated SPA beads. When a radiolabelled ligand, which is able to bind to the receptor coupled onto the SPA bead, interacts with the receptor it will be close enough in proximity to activate the SPA bead. The radiolabel emits radiation that leads to the production of a light signal by activation of the scintillant in the bead. More specifically for our studies, receptor binding studies were performed using Polyvinyltoluene (PVT) scintillation beads, which have wheat germ agglutinin (WGA) covalently attached on the surface (Perkin Elmer). These beads allow for the development of a homogeneous GPCR radioligand binding assay using cellular membranes or whole cells. Briefly, receptor SPA studies were performed in 96-well white isoplates with clear flat bottoms (Perkin Elmer). ^125I-C5a (~25 pM) (specific activity, 2,200 Ci/mmol) (Perkin Elmer) was added to either CHO-C5aR membrane preparations (~2 µg/well) or HMDM (25,000 cells/well). SPA beads (200 µg/well) were then added, followed by the addition of various concentrations of competing ligands (6 pM to 100 µM) in a total volume of 80 µL of buffer A (CHO-C5aR) or B (HMDM) (50 mM Tris-HCl, pH 7.4, 0.5% BSA, and either 5 mM MgCl2, 1 mM CaCl2 (A) or 3 mM MgCl2, 0.1 mM CaCl2 (B)). The final reaction volume per well comprised 20 µL of ligand/buffer, 20 µL of PVT WGA SPA beads, 20 µL of membrane/cells and the assay was initiated by the addition of 20 µL of ^125I-C5a. The plate was then sealed using TopSeal-A (Perkin Elmer) sealing film and incubated with shaking for 1 h at room temperature. Radioligand binding was then assessed for 30 s/well using a 1450 Microbeta scintillation counter (Perkin Elmer). All binding and subsequent assay data, unless stated otherwise, was analysed using GraphPad Prism 5.0c (GraphPAD Software Inc., San Diego, CA, USA).

Test [2] addresses T1, human C5aR. In words: 125I-C5a competitive receptor binding (SPA) on HMDM. Conditions: for IC50: 25 pM 125I-C5a, 95% confidence intervals in brackets.
Source text: as §1

Test [3] has as its system C5aR. Conditions: different cell types and assay platforms; cited from earlier work.
The target in test [4] is T1, human C5aR. As to the kind of experiment: Alphascreen SureFire phospho-ERK1/2 assay in CHO-C5aR cells. It is filed as cell-based. Conditions: for EC50: 95% confidence intervals in brackets, read-out: ERK (EC50). How it is done:
(§2) Alphascreen (Amplified Luminescent Proximity Homogeneous Assay Screen) SureFire phospho-ERK1/2 assay was performed according to manufacturers’ instructions (Perkin Elmer). AlphaScreen involves the use of two beads, denoted the donor and acceptor beads. When both beads are bound as a pair to an analyte and the donor bead is excited, a singlet oxygen is released which activates the acceptor bead. As there is a distance constraint here, only beads in close proximity can lead to further reactions that produce the detectable chemiluminescent signal. Briefly, HMDM and CHO-C5aR cells were serum starved and incubated in 96-well tissue culture plates (Nunc) overnight at 60,000 and 50,000 cells/well, respectively. Ligands were prepared in serum-free media at a final DMSO concentration of 1%. Ligands were incubated at room temperature for 10 and 15 min with HMDM and CHO-C5aR, respectively. Media was removed and cells were lysed with lysis buffer for 10 min on a shaker, 4 μL of lysate was transferred to a white 96-well half area plate (Perkin Elmer) and incubated in the presence of 7 μL of reaction mix. The plate was sealed with TopSeal-A, incubated for 2 h at 37 °C and measured on an Envision plate reader (Perkin Elmer). Each data point was performed in triplicate and repeated in at least three separate experiments.
On the technique in general: Alpha assays give light when donor and acceptor beads are brought close together.

Test [5] relates to C5aR. The arrangement: method as in PMID 7930622. To be noted: neutrophils; cited from earlier work.
Test [6] concerns the target T1, human C5aR. As to the kind of experiment: xCELLigence label-free impedance system on HMDM. The test is classed as cell-based. Conditions: predominant peak ~3.5 min, 95% confidence intervals in brackets. As for the experimental part: (§3) HMDM were seeded at 30,000 cells/well, CHO-C5aR at 5,000 cells/well and CHO-K1 at 7,500 cells/well and incubated overnight in 384-well E-Plates (Roche). Ligand preparation and cell treatment was as described for the EPIC® protocol above. However, during the buffer exchange equilibration steps, cells were kept in the incubator at 37 °C with 5% CO2. HMDM were media exchanged with serum-free IMDM and incubated for 2 h prior to ligand addition with recordings at 37 °C. Ligands for the HMDM experiments were prepared in serum-free media. To ensure consistency with the EPIC® data, time point for data analysis was determined by a number of different factors, mainly maximum response of predominant peak (Figure 2), but point at which the EC50 was stable over this time according to the RTCA software was also used to confirm the time point

The target of test [7] is T1, human C5aR. As to the kind of experiment: EPIC label-free optical system on HMDM. The test is classed as cell-based. Conditions: peak response ~5 min, 95% confidence intervals in brackets. How it is done:
(§4) HMDM were seeded, at 50,000 cells/well and CHO-C5aR and CHO-K1 at 7,500 cells/well, into fibronectin-coated cell-based EPIC® plates (Corning) and incubated overnight. Prior to ligand addition, media was exchanged for HBSS (Invitrogen Life Technologies): 20 mM HEPES (Sigma Aldrich) buffer, supplemented with 0.5% DMSO, and allowed to equilibrate at 26 °C for 1 h (HMDM) or 2 h (CHO-C5aR and CHO-K1) within the instrument. Agonists were prepared at a final DMSO concentration of 0.5% in HBSS:HEPES buffer. After ligand addition, measurements were taken continuously for 1–2 h at 26 °C. Peak amplitude response (Figure 2) was measured for data analysis using Corning EPIC® software.

The target in test [8] is T1, human C5aR. As to the kind of experiment: EPIC label-free optical system on CHO-C5aR cells. To be noted: peak response ~5 min, 95% confidence intervals in brackets. The test is classed as cell-based. How it is done:
as §4

The target in test [9] is T1, human C5aR. In words: xCELLigence label-free impedance system on CHO-C5aR cells. The test is classed as cell-based. To be noted: predominant peak ~3.5 min, 95% confidence intervals in brackets. How it is done:
as §3

For test [10], the target named is T1, human C5aR. As to the kind of experiment: Alphascreen SureFire phospho-ERK1/2 assay in HMDM. The test is classed as cell-based. To be noted: for EC50: 95% confidence intervals in brackets, read-out: ERK (EC50). How it is done: as §2

Consider C5a des-Arg, for which the “Difference in binding IC50 relative to C5a” value was ~ 6 fold at human C5aR [1] (CHO-C5aR) and ~ 2 fold at human C5aR [2]. In the test on C5aR [3], the “Reduction in potency compared to C5a” value was 10–1,000 fold.

In the case of `CN[C@@H](Cc1ccccc1)C(=O)N[C@@H](CCCCN)C(=O)N1CCC[C@H]1C(=O)N[C@H](CC1CCCCC1)C(=O)N[C@H](CC1CCCCC1)C(=O)N[C@H](CCCNC(=N)N)C(=O)O` [Peptide agonist, NMePhe-Lys-Pro-dCha-dCha-dArg-COOH] (H-[NMeF]KP[dCha][dCha][dR]-OH), the values for the IC50 on human C5aR [1] and on human C5aR [2] were 47 nM and 132 nM, respectively. Further, at human C5aR [4], the “ERK EC50 relative to that of C5a” value is ~ 30 fold. Besides, the figures for the “ERK response relative to the native ligand C5a (efficacy)” value at human C5aR [4] and on human C5aR [10] were “potentiation of the response relative to the native ligand” and “characteristics of a partial agonist; also recorded: partial agonist activity”, respectively. For the same molecule, the EC50 at human C5aR [4] was determined as 5 nM; on human C5aR [6], 546 nM; on human C5aR [7], 563 nM; on human C5aR [8], 347 nM; on human C5aR [9], 351 nM; at human C5aR [10], 120 nM. The “Functional character in myeloperoxidase release” value in the test on C5aR [5] is recorded as “full agonist”.

On to `CN[C@@H](Cc1ccccc1)C(=O)N[C@@H](CCCCN)C(=O)N1CCC[C@H]1C(=O)N[C@H](CC1CCCCC1)C(=O)N[C@H](Cc1cccc2ccccc12)C(=O)N[C@H](CCCNC(=N)N)C(=O)O` [Peptide partial agonist, NMePhe-Lys-Pro-dCha-dNal-dArg-COOH] (H-[NMeF]KP[dCha][d1Nal][dR]-OH), for which the “ERK response relative to the native ligand C5a (efficacy)” value on human C5aR [4] and on human C5aR [10] was “approximately half of the response relative to C5a” in each case.

B1: C5a des-Arg (protein)
chain: TLQKKIEEIAAKYKHSVVKKCCYDGACVNNDETCEQRAARISLGPRCIKAFTECCVVASQLRANISHKDMQLG
modifications: glycosylated (N-glycan at Asn64 of C5a, Asn741 of precursor, by convention); three intrachain disulfides
notes: C5a minus its C-terminal arginine, purchased from Merck
Consider B1, for which the IC50 in the test with human C5aR [1] is 1.2 nM and 1.23 nM; in the test with human C5aR [2], 2.5 nM. Moreover, the EC50 with human C5aR [4] is 2 nM; with human C5aR [6], 20 nM; with human C5aR [7], 47 nM; with human C5aR [8], 11 nM; with human C5aR [9], 44 nM; in the test with human C5aR [10] it was 0.55 nM.

B2: C5a: endogenous 74 residue protein ligand of human C5aR, purchased from Sigma Aldrich and Sino Biological Inc (protein, UniProt P01031 678-751, looked up)
C5a anaphylatoxin: TLQKKIEEIAAKYKHSVVKKCCYDGACVNNDETCEQRAARISLGPRCIKAFTECCVVASQLRANISHKDMQLGR
modifications: C5a anaphylatoxin
notes: endogenous 74 residue protein ligand of human C5aR, purchased from Sigma Aldrich and Sino Biological Inc
Consider B2, for which the half-maximal inhibitory concentration (IC50) amounted to 0.2 nM in the test with human C5aR [1] and 1.2 nM with human C5aR [2]. Moreover, the EC50 with human C5aR [4] was 0.15 nM; with human C5aR [6], 89 nM; with human C5aR [7] it was 107 nM; in the test with human C5aR [8] it was 24 nM; with human C5aR [9], 16 nM; with human C5aR [10], 0.47 nM.

As a reminder, the IC50 is the point on the concentration scale where inhibition reaches its midpoint. One may read the EC50 as the concentration at which the effect is half-maximal.
